Experiment [1] deals with Serine/threonine-protein kinase PAK 4 (Homo sapiens, UniProt O96013). As to the kind of experiment: Selectivity interaction (Kinase panel (Z-LYTE Assay)) EUB0001632a PAK4. The note with it: at 10 µM.
The subject of experiment [2] is Proto-oncogene tyrosine-protein kinase receptor Ret (Homo sapiens), P07949 [S891A]. As to the kind of experiment: (§1) Selectivity interaction (Kinase panel (Z-LYTE Assay)) EUB0001632a RET. The note with it: at 10 µM.
The test system of experiment [3] is Proto-oncogene tyrosine-protein kinase receptor Ret (Homo sapiens), P07949 [V804L]. The experiment is described as §1. The note with it: at 10 µM.
The subject of experiment [4] is Proto-oncogene tyrosine-protein kinase receptor Ret (Homo sapiens), P07949 [Y791F]. The description is as §1. The note with it: at 10 µM.
Experiment [5] deals with Proto-oncogene tyrosine-protein kinase receptor Ret (Homo sapiens, UniProt P07949). Described as §1. The note with it: at 10 µM.
Experiment [6] deals with SRSF protein kinase 2 (Homo sapiens) (UniProt P78362). As to the kind of experiment: Selectivity interaction (Kinase panel (Z-LYTE Assay)) EUB0001632a SRPK2. The note with it: at 10 µM.
In experiment [7] the test system is Tyrosine-protein kinase ABL1 (Homo sapiens), P00519 [F317I]. As to the kind of experiment: Selectivity interaction (KinomeScan (DiscoverX)) EUB0000607a ABL1. The note with it: at 10 µM.
In experiment [8] the target is Serine/threonine-protein kinase PAK 1 (Homo sapiens) (UniProt Q13153). As to the kind of experiment: Selectivity interaction (KinomeScan (DiscoverX)) EUB0000607a PAK1. The note with it: at 10 µM.
The target in experiment [9] is T1, Mitogen-activated protein kinase kinase kinase 3 (Homo sapiens) (UniProt Q99759).
T1 sequence (whole entry): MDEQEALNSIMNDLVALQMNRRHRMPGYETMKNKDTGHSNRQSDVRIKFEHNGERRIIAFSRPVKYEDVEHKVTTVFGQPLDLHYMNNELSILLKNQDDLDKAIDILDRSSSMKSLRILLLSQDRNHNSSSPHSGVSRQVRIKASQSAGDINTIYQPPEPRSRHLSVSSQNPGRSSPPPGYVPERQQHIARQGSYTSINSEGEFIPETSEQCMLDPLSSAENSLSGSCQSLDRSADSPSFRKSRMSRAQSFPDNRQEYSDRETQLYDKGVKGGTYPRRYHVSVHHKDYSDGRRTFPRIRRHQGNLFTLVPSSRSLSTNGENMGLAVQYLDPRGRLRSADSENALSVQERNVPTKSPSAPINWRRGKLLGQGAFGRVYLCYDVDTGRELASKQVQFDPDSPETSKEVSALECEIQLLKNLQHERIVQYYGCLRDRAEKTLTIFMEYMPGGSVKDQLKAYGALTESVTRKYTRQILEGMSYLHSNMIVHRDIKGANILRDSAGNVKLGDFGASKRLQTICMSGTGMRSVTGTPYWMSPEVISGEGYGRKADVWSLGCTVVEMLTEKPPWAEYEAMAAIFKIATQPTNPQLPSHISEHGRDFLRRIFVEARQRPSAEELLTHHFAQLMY
As to the kind of experiment: Selectivity interaction (KinomeScan (DiscoverX)) EUB0000666a MAP3K3. The note with it: at 10 µM.

Experiment [10] concerns the target Serine/threonine-protein kinase MARK1 (Homo sapiens) (UniProt Q9P0L2). Put plainly: Selectivity interaction (KinomeScan (DiscoverX)) EUB0000229b MARK1. The note with it: at 10 µM.
For experiment [11], the target named is T2, Mitogen-activated protein kinase kinase kinase 15 (Homo sapiens) (UniProt Q6ZN16).
T2 sequence (whole entry): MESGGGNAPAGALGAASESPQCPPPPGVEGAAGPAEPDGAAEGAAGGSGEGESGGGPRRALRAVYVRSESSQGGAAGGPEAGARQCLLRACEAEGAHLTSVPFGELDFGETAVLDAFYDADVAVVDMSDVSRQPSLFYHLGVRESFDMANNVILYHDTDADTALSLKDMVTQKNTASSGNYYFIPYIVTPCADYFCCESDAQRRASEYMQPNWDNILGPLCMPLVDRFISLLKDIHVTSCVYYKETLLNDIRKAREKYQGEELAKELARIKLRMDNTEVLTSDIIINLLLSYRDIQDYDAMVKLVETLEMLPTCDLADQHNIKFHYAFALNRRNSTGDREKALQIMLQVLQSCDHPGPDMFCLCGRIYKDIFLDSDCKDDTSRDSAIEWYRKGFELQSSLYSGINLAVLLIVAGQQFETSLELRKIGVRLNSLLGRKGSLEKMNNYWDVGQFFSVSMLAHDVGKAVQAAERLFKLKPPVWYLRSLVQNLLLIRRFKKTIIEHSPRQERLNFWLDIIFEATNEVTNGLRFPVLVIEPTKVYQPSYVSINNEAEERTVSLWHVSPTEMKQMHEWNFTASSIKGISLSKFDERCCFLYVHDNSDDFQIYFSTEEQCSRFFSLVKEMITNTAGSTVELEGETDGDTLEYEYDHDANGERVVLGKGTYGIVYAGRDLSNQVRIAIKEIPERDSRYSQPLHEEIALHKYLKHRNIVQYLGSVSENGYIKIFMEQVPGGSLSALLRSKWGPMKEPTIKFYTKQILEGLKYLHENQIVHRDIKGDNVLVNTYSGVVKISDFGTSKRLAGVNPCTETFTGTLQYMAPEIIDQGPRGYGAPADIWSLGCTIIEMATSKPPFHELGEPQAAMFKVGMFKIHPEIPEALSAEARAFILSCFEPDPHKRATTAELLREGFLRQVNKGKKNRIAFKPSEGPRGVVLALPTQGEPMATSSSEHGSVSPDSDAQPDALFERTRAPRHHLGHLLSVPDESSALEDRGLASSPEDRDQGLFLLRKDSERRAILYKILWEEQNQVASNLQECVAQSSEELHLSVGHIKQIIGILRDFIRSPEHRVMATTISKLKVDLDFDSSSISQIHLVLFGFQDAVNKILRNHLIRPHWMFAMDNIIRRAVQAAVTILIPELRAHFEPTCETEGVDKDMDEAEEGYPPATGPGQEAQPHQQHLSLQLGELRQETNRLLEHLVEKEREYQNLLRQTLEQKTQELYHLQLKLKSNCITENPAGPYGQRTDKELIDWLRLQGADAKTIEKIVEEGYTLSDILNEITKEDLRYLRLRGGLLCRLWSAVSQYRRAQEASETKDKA
Put plainly: Selectivity interaction (KinomeScan (DiscoverX)) EUB0000655a MAP3K15. The note with it: at 10 µM.

Experiment [12] deals with Tyrosine-protein kinase Lyn (Homo sapiens, UniProt P07948). As to the kind of experiment: Selectivity interaction (KinomeScan (DiscoverX)) EUB0001619a LYN. The note with it: at 1 µM.
Experiment [13] concerns the target Serine/threonine-protein kinase Nek7 (Homo sapiens) (UniProt Q8TDX7). As to the kind of experiment: Selectivity interaction (ActivX KiNativ screen (ex vivo kinase selectivity in human PBMCs)) EUB0001619a NEK7. The format is cell-based. The note with it: PBMC, at 1 µM.
Experiment [14] concerns the target Dual specificity protein kinase CLK4 (Homo sapiens, UniProt Q9HAZ1). Put plainly: Selectivity interaction (KinomeScan (DiscoverX)) EUB0001049a CLK4. The note with it: at 1 µM.
The target in experiment [15] is Ribosomal protein S6 kinase alpha-6 (Homo sapiens, UniProt Q9UK32). As to the kind of experiment: Selectivity interaction (KinomeScan (DiscoverX)) EUB0001049a RPS6KA6. The note with it: at 1 µM.
The target in experiment [16] is Ribosomal protein S6 kinase alpha-4 (Homo sapiens) (UniProt O75676). Put plainly: Selectivity interaction (KinomeScan (DiscoverX)) EUB0000618a RPS6KA4. The note with it: at 10 µM.

Sequence of Proto-oncogene tyrosine-protein kinase receptor Ret (Homo sapiens), P07949 [S891A] (P07949 whole entry S891A): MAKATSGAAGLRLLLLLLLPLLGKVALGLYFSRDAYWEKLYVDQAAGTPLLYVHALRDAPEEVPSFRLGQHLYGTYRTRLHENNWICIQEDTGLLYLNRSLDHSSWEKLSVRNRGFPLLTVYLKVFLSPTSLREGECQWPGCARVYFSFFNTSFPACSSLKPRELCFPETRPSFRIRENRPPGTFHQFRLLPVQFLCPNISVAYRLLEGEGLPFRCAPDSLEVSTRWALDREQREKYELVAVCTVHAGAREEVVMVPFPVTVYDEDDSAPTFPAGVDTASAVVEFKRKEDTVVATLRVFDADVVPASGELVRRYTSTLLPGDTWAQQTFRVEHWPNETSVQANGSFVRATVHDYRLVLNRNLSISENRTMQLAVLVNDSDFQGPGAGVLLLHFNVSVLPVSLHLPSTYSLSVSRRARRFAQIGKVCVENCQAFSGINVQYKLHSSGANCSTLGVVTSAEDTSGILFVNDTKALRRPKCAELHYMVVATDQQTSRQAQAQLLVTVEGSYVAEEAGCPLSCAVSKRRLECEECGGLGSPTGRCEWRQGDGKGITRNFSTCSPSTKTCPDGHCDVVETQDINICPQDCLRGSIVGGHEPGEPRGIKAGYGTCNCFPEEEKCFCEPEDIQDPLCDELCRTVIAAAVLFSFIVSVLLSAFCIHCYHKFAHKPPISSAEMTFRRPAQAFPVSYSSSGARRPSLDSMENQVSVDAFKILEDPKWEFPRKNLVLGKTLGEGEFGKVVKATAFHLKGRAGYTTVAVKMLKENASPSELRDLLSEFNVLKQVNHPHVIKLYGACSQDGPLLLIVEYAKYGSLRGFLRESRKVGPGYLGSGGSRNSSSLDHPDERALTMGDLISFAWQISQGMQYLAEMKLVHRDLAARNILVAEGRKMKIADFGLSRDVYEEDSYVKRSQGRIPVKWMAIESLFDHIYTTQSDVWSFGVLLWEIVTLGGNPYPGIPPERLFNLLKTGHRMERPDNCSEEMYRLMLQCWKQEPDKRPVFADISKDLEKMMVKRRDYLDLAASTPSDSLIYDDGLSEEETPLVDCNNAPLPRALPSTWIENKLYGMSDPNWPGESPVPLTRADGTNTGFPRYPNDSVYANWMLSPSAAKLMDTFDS
Sequence of Serine/threonine-protein kinase PAK 4 (O96013 whole entry, looked up): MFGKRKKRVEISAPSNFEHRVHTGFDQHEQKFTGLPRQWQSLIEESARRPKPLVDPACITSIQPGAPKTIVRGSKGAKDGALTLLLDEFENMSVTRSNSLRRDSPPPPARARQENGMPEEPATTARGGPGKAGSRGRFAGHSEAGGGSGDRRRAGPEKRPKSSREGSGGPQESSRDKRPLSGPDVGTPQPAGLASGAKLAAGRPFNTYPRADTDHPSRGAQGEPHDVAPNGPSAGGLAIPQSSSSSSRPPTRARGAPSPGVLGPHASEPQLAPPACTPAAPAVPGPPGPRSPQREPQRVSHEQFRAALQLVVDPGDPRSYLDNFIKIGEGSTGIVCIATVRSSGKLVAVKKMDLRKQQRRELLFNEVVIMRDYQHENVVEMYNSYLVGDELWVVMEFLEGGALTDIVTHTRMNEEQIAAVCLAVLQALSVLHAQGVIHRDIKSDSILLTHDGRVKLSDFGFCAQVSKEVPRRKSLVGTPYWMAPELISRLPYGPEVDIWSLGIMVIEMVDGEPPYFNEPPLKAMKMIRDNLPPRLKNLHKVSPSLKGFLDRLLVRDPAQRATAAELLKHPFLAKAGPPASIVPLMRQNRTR
Sequence of Proto-oncogene tyrosine-protein kinase receptor Ret (Homo sapiens), P07949 [Y791F] (P07949 whole entry Y791F): as the sequence (P07949 whole entry S891A) above, with Y791F, A891S counted along it
Sequence of Proto-oncogene tyrosine-protein kinase receptor Ret (Homo sapiens), P07949 [V804L] (P07949 whole entry V804L): as the sequence (P07949 whole entry S891A) above, with V804L, A891S counted along it
Sequence of Proto-oncogene tyrosine-protein kinase receptor Ret (P07949 whole entry): as the sequence (P07949 whole entry S891A) above, with A891S counted along it

Take `Cn1cc(-n2cnc3c(NCc4nc5cc(Cl)c(Cl)cc5[nH]4)nc(N4CCOCC4)nc32)cn1`: the % of control is 7.15% in experiment [1]; 2.48% in experiment [2]; 6.91% in experiment [3]; 6.92% in [4]; 12% in experiment [5]; -0.444% in [6].

`CNC(=O)Nc1ccc(-c2nc(N3CC4CCC(C3)O4)c3cnn(C4CCC5(CC4)OCCO5)c3n2)cc1`: the % of control in experiment [7] and in experiment [8] was 100% each time.

Regarding `O=C(NOC[C@H](O)CO)c1ccc(F)c(F)c1Nc1ccc(I)cc1F`, the % of control in [9] worked out at 98%.

The compound `COc1cc(N(C)c2ccnc3ccc(C(F)(F)F)cc23)cc(OC)c1OC` yielded a % binding in experiment [10] of 98%.

As to `CN(C)CCOc1ccc(-c2nc(-c3ccncc3)c(-c3ccc4c(c3)CC/C4=N\O)[nH]2)cc1`, the % of control in experiment [11] came to 100%.

Turning to `N#Cc1cccc(-c2c[nH]c3ncnc(N4CCOCC4)c23)c1`, the % of control in experiment [12] is 91%. Further, the % of inhibition in [13] amounted to 7%.

As for `COc1cc(Nc2nc(C)cc(-c3cnn4nc(OC)ccc34)n2)cc(C(F)(F)F)c1`, the % of control in [14] was found to be 98%; in experiment [15], 70%.

Regarding `O[C@H]1CC[C@H](Nc2ncc3nc(Nc4c(F)cc(F)cc4F)n([C@H]4CCOC4)c3n2)CC1`, the % of control in [16] amounted to 100%.

Values taken from ChEMBL document CHEMBL5465560, “Selectivity Literature for EUbOPEN Chemogenomic Library” (2024).
